Measurements taken from patent publication US20020128268A1, “Use of 2-hydrazino-1,3-thiazoles as antioxidants” (priority 2000, published 2002).

Key:
[1] = Rancimat accelerated autooxidation of lipids by air, soyabean oil; conditions: antioxidative index = IP(with test solution)/IP(control sample)
Method: (§1) The activity of the exemplary compounds as antioxidants was compared with that of conventional antioxidants. The accelerated autooxidation of lipids by air with or without antioxidant, as measured using the Rancimat appliance (Rancimat is a registered trademark belonging to Metrohm AG, Herisau, Switzerland) was used as the test system. The exemplary compounds, Vitamin C, α-tocopherol and dibutyihydroxytoluene were dissolved in methanol or acetone, and 100 μl of the respective test solution were added to a previously prepared oil sample weighing 3 g. Solvent only was added to a control sample. A constant, dry stream of air (20 I/h) was blown through the heated oil sample containing the test solution, and the volatile oxidation products (principally short-chain fatty acids such as formic and acetic acid) were collected in a recipient vessel containing water. The conductivity of this aqueous solution was measured and documented continuously. In this connection, the oxidation of (unsaturated) fats proceeds only very slowly for a while and then suddenly increases rapidly. The time which elapses until the increase is termed the induction period (IP). The antioxidative index (AOI) was obtained using the following equation: AOI=IP(with test solution)/IP(control sample). The results for the experiments in soyabean oil at 100° C. and, at 80° C., in squalene, which was purified on alumina type N and stabilized with 1 ppm α-tocopherol, are shown in Table 6: […]

[2] = DPPH (1,1-diphenyl-2-picryl-hydrazyl) test for eliminating free radicals; type: biochemical; conditions: effective relative concentration c(test compound)/c(DPPH) at which the DPPH free radical was 50% eliminated; methanol, absorption at 515 nm
Method: The activity of the exemplary compounds as free radical-capturing agents was compared with that of conventional free radical-capturing agents. In this connection, use was made of the DPPH (1,1-diphenyl-2-picryl-hydrazyl) test for eliminating free radicals.
DPPH was dissolved in methanol to give a concentration of 100 μmol/l. A series of dilutions of the exemplary compounds, Vitamin C, α-tocopherol and dibutylhydroxytoluene were prepared in methanol. Methanol served as the control. 2500 μl of the DPPH solution were mixed with 500 μl of each test solution and the decrease in the absorption at 515 nm was read until the decrease was less than 2% per hour. The activity of the test substances as free radical-capturing agents was calculated using the following equation:
Activity as free radical-capturing agent (%)=100—(absorption of the test compounds)/(absorption of the control)×100.
For each test compound, the effective relative concentration EC50 (based on the concentration of DPPH which was initially present, EC=c (test compound)/c(DPPH)) of a test compound, i.e. at which the DPPH free radical was 50% eliminated, was calculated from the activity as a free radical-capturing agent (%) in a series of dilutions of test compounds.

[3] = Rancimat accelerated autooxidation of lipids by air, squalene; conditions: antioxidative index = IP(with test solution)/IP(control sample), squalene purified on alumina type N and stabilized with 1 ppm α-tocopherol
Method: as §1

| SMILES | AOl in Soyabean oil at 100° C. containing 0.05% test substance [1] | EC50/ (mol/mol) [2] [mol/mol] | AOl in squalene at 80° C. containing 0.005% test substance [3] |
| --- | --- | --- | --- |
| Cc1ccc2nc(NN)sc2c1 [6-Methyl-2-hydrazino-1,3-benzothiazole] | 2.4 | 0.28 | 67 |
| NNc1nc2ccccc2s1 [2-Hydrazino-1,3-benzothiazole] | 17 | 0.15 | 97 |
| NNc1nnc(-c2ccc(F)cc2)s1 [2-Hydrazino-5-(4-fluorophenyl)-1,3,4-thiadiazole] | 15 | 0.14 | 38 |
| CC(C)(C)c1ccc2nc(NN)sc2c1 [6-tert.-Butyl-2-hydrazino-1,3-benzothiazole] | 6 | 0.15 | 14 |
| O=C1O[C@H]([C@@H](O)CO)C(O)=C1O [Vitamin C, reference compound] | 1.2 | 0.27 | 0.7 |
| COc1ccc2nc(NN)sc2c1 [6-Methoxy-2-hydrazino-1,3-benzothiazole] | 24 |  | 23 |
| Cc1cc(C(C)(C)C)c(O)c(C(C)(C)C)c1 [Dibutylhydroxytoluene, reference compound] | 4.8 | 0.24 | 38 |
| NNc1nc2cc(S(=O)(=O)O)ccc2s1 [2-Hydrazino-1,3-benzothiazole-5-sulfonic acid] |  | 0.17 |  |
| NNc1nc(-c2ccccc2)cs1 [2-Hydrazino-4-phenyl-1,3-thiazole] | 8.5 | 0.13 | 13 |
| COc1cc2nc(NN)sc2cc1OC [5,6-Dimethoxy-2-hydrazino-1,3-benzothiazole] | 4.1 | 0.12 | 24 |
| NNc1nc2cccnc2s1 [2-Hydrazino-thiazolo-[5,4-b]pyridine] |  | 0.10 | 60 |
| Cc1c(C)c2c(c(C)c1O)CC[C@@](C)(CCC[C@H](C)CCC[C@H](C)CCCC(C)C)O2 [α-Tocopherol, reference compound] | 5.1 | 0.25 | 39 |
